Data taken from patent US9265764B2, “Uses of chemicals to modulate GSK-3 signaling for treatment of bipolar disorder and other brain disorders” (Massachusetts Institute of Technology, priority 2009, dated 2016).

Tests used:
[1] = system: βCat-eGFP reporter in human U2OS cells; test: Cellular β-catenin stability assay (βCat-eGFP reporter); type: cell-based; settings: for β-catenin accumulation: βCat-eGFP reporter assay
Description: Cellular-β-Catenin Stability Assay: To study effects of small molecules on GSK-3/β-catenin signaling in cells, we optimized an image-based assay that measures β-catenin stability. This assay uses human U2OS cells engineered to express a genetically encoded fluorescent reporter consisting of a fusion of β-catenin to enhanced green fluorescent protein (eGFP) that were obtained from Thermo Fisher Scientific (Denmark). […] Lithium treatments at 10 mM and valproic acid at 10 mM also have the same effect in this assay. […] Cells were imaged on an ImageXpress Micro (Molecular Devices) automated microscope at 10× magnification with detection of both DNA and eGFP fluorescence. The percentage of eGFP positive cells was calculated and compared to an untreated control.

[2] = system: amphetamine-induced hyperactivity in C57BL/6J mice; test: Amphetamine-induced hyperactivity (AIH) in C57BL/6J mice; type: in vivo
[3] = biological target: T1, human GSK-3β (Homo sapiens, UniProt P49841); test: in vitro GSK-3β kinase assay (Kinase-Glo luminescence); type: biochemical; settings: FIG. 9 dose response, n=4
T1 construct: Recombinant full-length human GSK-3β (NM_002093) with an N-terminal GST tag; GST (N); purchased BPS Biosciences 40007; host or cells: Sf9 insect cells (baculovirus)

[4] = system: panel of 358 kinases; test: KINOMEscan active-site dependent competition binding assay; settings: 10 μM
[5] = system: TCF/LEF reporter in HEK293 cells; test: TCF/LEF reporter assay with lithium; type: cell-based; settings: FIG. 12
[6] = system: amphetamine-induced hyperactivity in DBA/2J mice; test: Lithium-nonresponsive AIH in DBA/2J mice; type: in vivo; settings: for effect on AIH: DBA/2J
[7] = Serum level after systemic administration
[8] = system: dopamine transporter (DAT) knockout mice; settings: 10 mg/kg; i.p.; cited from earlier work
[9] = ICV 1 μl of 0.1, 1.4, 14 μg/μl, FIGS. 16-18
[10] = intra-striatal infusion, 1 μl of 1.4 μg/μl, FIG. 22

T1 sequence (P49841 1-433 isoform P49841-2): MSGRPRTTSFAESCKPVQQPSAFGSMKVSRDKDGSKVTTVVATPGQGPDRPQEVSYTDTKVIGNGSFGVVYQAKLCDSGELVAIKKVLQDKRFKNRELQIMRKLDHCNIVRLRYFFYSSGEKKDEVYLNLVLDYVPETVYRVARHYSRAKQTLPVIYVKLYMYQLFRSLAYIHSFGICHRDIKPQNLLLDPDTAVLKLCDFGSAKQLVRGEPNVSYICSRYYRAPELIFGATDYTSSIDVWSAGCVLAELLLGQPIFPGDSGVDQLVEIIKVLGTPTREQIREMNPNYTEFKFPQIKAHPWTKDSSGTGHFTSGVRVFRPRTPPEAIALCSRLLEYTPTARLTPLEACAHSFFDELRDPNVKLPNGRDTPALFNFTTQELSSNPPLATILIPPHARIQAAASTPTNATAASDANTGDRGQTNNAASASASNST

COc1ccc(CNC(=O)Nc2ncc([N+](=O)[O-])s2)cc1 [AR-A014418]
eGFP fluorescence and accumulation of βCat-eGFP reporter ([1]; 20 μM over 20 hrs): dose dependent increase in eGFP fluorescence | effect on AIH ([2]; 9 mg/kg i.p., FIG. 19): None of these GSK-3 inhibitors showed a significant effect on hyperactivity

CN(C)CCCn1cc(C2=C(c3c[nH]c4ccccc34)C(=O)NC2=O)c2ccccc21 [BIM-I, bisindoylmaleimide I]
IC50 [3]: ~6.9 nM

Cc1c[nH]c(-c2cnc(NCCNc3ccc(C#N)cn3)nc2-c2ccc(Cl)cc2Cl)n1 [CHIR-99021]
Number of Binding Targets (kinases) [4]: 10 | TCF/LEF reporter signal: effect of addition of lithium ([5]; high concentration of Chir99021): synergistic effect | TCF/LEF reporter signal: effect of addition of lithium ([5]; lower concentrations of Chir99021): only an additive effect | effect on AIH ([2]; 6.25 mg/kg single dose i.p., FIG. 24): non-effective dose | effect on AIH ([2]; 12.5 mg/kg single dose i.p., FIG. 24): significantly decreased amphetamine-induced hyperactivity | effect on AIH ([2]; 25 mg/kg single dose i.p., FIG. 24): significantly decreased amphetamine-induced hyperactivity | effect on AIH [2, 9]: effective in attenuating AIH to levels comparable to those observed after lithium administration | effect on AIH [2, 10]: almost complete ablation of the amphetamine-induced hyperactivity | lowest dose that attenuated AIH ([2]; systemic (i.p.), C57BL/6J mice): 12.5 mg/kg | effect on AIH ([6]; 50 mg/kg i.p., FIG. 26): significant attenuation of AIH | effect on AIH ([6]; ICV 0.14 μg (1 μl infusion), FIG. 28): significantly attenuated AIH | effect on AIH ([6]; ICV 1.4 μg (1 μl infusion), FIG. 28): significantly attenuated AIH | lowest dose that attenuated AIH ([6]; systemic (i.p.), DBA/2J mice, FIG. 27): 0.78 mg/kg | maximum serum level ([7]; 3.125 mg/kg systemic, extrapolated): 3 to 4 µM | maximum serum level ([7]; 3.125 mg/kg systemic, extrapolated, listed as compound of formula 7): about 4 μM | maximum serum level ([7]; 12.5 mg/kg systemic): about 15 μM | maximum serum level ([7]; 50 mg/kg systemic): about 69 μM

Cn1cc(C2=C(c3ccc(Cl)cc3Cl)C(=O)NC2=O)c2ccccc21 [SB-216763]
Number of Binding Targets (kinases) [4]: 31 | effect on AIH ([2]; 5, 10, 20 mg/kg i.p.): None of these GSK-3 inhibitors showed a significant effect on hyperactivity | effect on AIH ([2]; ICV in DMSO vehicle): None of these GSK-3 inhibitors showed a significant effect on hyperactivity | hyperactivity in DAT knockout mice [8]: attenuates hyperactivity

Cn1cc(C2=C(c3cn(C4CCN(Cc5ccccn5)CC4)c4ccccc34)C(=O)NC2=O)c2ccccc21 [enzastaurin]
Number of Binding Targets (kinases) [4]: 75 | β-catenin accumulation [1]: able to cause β-catenin accumulation | effect on AIH [2, 9]: no effect in AIH | effect on AIH [2, 10]: modestly effective

CN(C)C[C@@H]1CCn2cc(c3ccccc32)C2=C(C(=O)NC2=O)c2cn(c3ccccc23)CCO1 [ruboxistaurin]
Number of Binding Targets (kinases) [4]: 95 | β-catenin accumulation [1]: able to cause β-catenin accumulation | effect on AIH [2, 9]: moderate attenuating effect

CCCC(CCC)C(=O)O [valproic acid]
eGFP fluorescence and accumulation of βCat-eGFP reporter ([1]; 10 mM): same effect
